Assay results from patent US6331555A, “Treatment of platelet derived growth factor related disorders such as cancers” (priority 1999, dated 2001).

How the values were obtained:
[1] = tested on: spleen cells; assay: Normal immune function in mice bearing a primary tumor; assay type: in vivo, mouse; conditions: 20 mg/kg/day
Description: (§1) At the indicated times, animals were sacrificed, and the spleens were aseptically removed and placed into sterile medium. Spleens were processed into single cell suspensions by grinding between sterile frosted glass microscope slides. After a single wash to remove tissue debris, the spleen cells were resuspended in a hypotonic ammonium chloride buffer to lyse erythrocytes. Lymphocytes were washed and resuspended to the appropriate concentrations in complete medium, consisting of RPMI plus 10% heat-inactivated FBS, 2 mM glutamine, 50 μM β-mercaptoethanol, and penicillin-streptomycin. The responses of the lymphocytes were examined in the following assays according to accepted procedures (Current Protocols in Immunology. Coligan, J. E., Kruisbeek, A. M., Margulies, D. H., Shevach, E. M., Strober, W. (eds.) John Wiley and Sons, Inc., 1992).
(§2) The T-cell mitogen, ConA, and the T-cell independent B-cell mitogen, LPS, were added to 96-well round-bottom wells at the indicated concentrations. Lymphocytes from normal, vehicle-dosed, and drug-dosed animals were added at a final concentration of 2.5×10^5 /well. Cultures were usually set up in triplicate or quadruplicate. The plates were incubated at 37° C. in a humidified atmosphere containing 5% CO2 for the indicated times. Supernatants (approximately 100 μL) were carefully removed from the wells and stored at -80° C. for lymphokine and immunoglobulin analyses. To measure proliferation of the lymphocytes, 1 μCi of ^3 H-thymidine was added to each well, and the plates were incubated for 6 hr. The cultures were harvested onto glass fiber filters, and the incorporated radioactivity was quantitated by liquid scintillation counting (Betaplate, Wallac).
(§3) Lymphocytes from normal, vehicle-dosed, and drug-dosed animals were plated at 2.5×10^5 /well in round-bottom 96-well plates. Stimulator cells were then added at the same cell concentration. The stimulator cells consisted of syngeneic or allogeneic lymphocytes which had been treated with 50 μg/mL of mitomycin C for 30 min prior to the assay. The plates were incubated for 3 to 4 days, at which time supernatants were harvested and the cultures were pulsed as described for the mitogen assays.
(§4) Supernatants from mitogen and MLR cultures were assayed for IL-2 and IL-6 content by the ability to support the growth of factor-dependent cell lines. HT-2 cells (10^4 /well, IL-2-dependent) and 7TD1 cells (2×10^3 /well, IL-6-dependent) were plated in 96-well flat-bottom plates, in 50 μL/well. Supernatants were added in 50 μL/well, and the plates were incubated overnight (HT-2) or four days (7TD1). Cellular proliferation was determined in the MTT colorimetric assay (Appendix 3.1).
Flat bottom 96-well EIA plates were coated with goat anti-mouse Ig antibodies (Southern Biotechnology) overnight at 4° C. The plates were blocked by the addition of PBS+1% BSA. After washing with PBS, supernatants from murine mitogen and MLR cultures were added and incubated at room temperature for 1 hr. The plates were washed with PBS, then HRP-labeled goat anti-mouse Ig antibodies were added and incubated at room temperature for 1 hr. The plates were washed and developed by the addition of substrate (ABTS).
BALB/c mice received SC implants of syngeneic WEHI-164.13 fibrosarcoma cells on day 0. […] On day 17, the animals were sacrificed and their spleens were removed. The spleen cells were assayed in vitro for responses to alloantigens and mitogens.

[2] = Effects of A10 on body weight and organs; assay type: in vivo, mouse; conditions: 20 mg/kg/day, 100 day period
Procedure: Vehicle control animals received IP administration of 100 μL PBTE:D5W (1:1, v:v) every day for 101 days, and untreated control animals received no treatments. There were eight animals in each group. Weights were measured on day 0 (one day prior to drug administration) and two times/week until experiment termination. The percent weight change was calculated as mean weight at each determination as compared to the mean weight on day 0.
However, after several weeks, the animals gained weight at a rate similar to untreated or vehicle-treated animals.

[3] = tested on: spleen cells; assay: Normal immune function in rats bearing a primary tumor; assay type: in vivo, rat; design: key to 3H-thymidine uptake: 0: no change; +/-: decrease in some drug-treated animals to levels detected in normal (non-tumor-bearing, non-drug-treated) animals; conditions: 8.4 mg/kg/day
Description: as §1, §2, §3, §4
Wistar rats received SC implants of C6 cells on day 0. […] The control group was not treated after tumor implantation. On day 21, the animals were sacrificed and the spleens were removed for in vitro analyses. Splenocytes were stimulated with ConA, LPS, and alloantigen (DA rat spleen cells) as in the murine studies.

[4] = in vivo
Description: Many cancer therapeutics are cytotoxic in nature and have profound effects on blood cells resulting in cytopenia.

[5] = tested on: 9L glioma; assay: SC xenograft in mice; assay type: in vivo, rat; conditions: nu/nu, 20 mg/kg/day, day 20
Procedure: Cell lines were grown in appropriate medium (see Appendix 1). Cells were harvested at or near confluency with 0.05% Trypsin-EDTA and pelleted at 450×g for 10 min. Pellets were resuspended in sterile PBS or media (without FBS) to a particular concentration and the cells were implanted into the hindflank of mice. Tumor growth was measured over 3 to 6 weeks using venier calipers. Tumor volumes were calculated as a product of length×width×height unless otherwise indicated. P values were calculated using the Students' t-test.

Cc1oncc1C(=O)Nc1ccc(C(F)(F)F)cc1 [Compound A10, 5-methylisoxazole-4 carboxylic acid-(4-trifluromethyl)-anilide]
IL-2 production ([1]; Allo): 0
IL-6 production ([1]; Allo): 0
Ig production ([1]; Allo): 0
IL-2 production ([1]; ConA): 0
IL-6 production ([1]; ConA): 0
Ig production ([1]; ConA): 0
IL-2 production ([1]; LPS): 0
IL-6 production ([1]; LPS): 0
Ig production ([1]; LPS): 0
IL-2 production ([1]; Tumor stimulus): 0
IL-6 production ([1]; Tumor stimulus): 0
Ig production ([1]; Tumor stimulus): 0
mortality [2]: no mortality was observed
syngeneic MLR proliferative response [3]: reduced in one of four A10-treated tumor-bearing animals
3H-thymidine uptake ([3]; Allo): 0
IL-2 production ([3]; Allo): 0
IL-6 production ([3]; Allo): 0
3H-thymidine uptake ([3]; ConA): 0
IL-2 production ([3]; ConA): 0
IL-6 production ([3]; ConA): 0
3H-thymidine uptake ([3]; LPS): 0
IL-2 production ([3]; LPS): 0
IL-6 production ([3]; LPS): 0
3H-thymidine uptake ([3]; Syn): +/-
IL-2 production ([3]; Syn): 0
IL-6 production ([3]; Syn): 0
3H-thymidine uptake ([3]; Tumor stimulus): 0
IL-2 production ([3]; Tumor stimulus): 0
IL-6 production ([3]; Tumor stimulus): 0
effects on blood cell [4]: No effects on blood cell were observed
% Inhibition [5]: 83%
